Assay results as given in patent US6773702B2, “Use of combretastatin A4 and its prodrugs as an immune enhancing therapy” (OXiGENE, Inc., priority 2000, dated 2004).

Tested on: spleen cells of tumor-free rats immunized with BN7005-H1D2-IL-12 and IL-18 cells
Test: Proliferative T cell response (thymidine incorporation) after in vitro preincubation of spleen cells with CA4P
Type: cell-based, rat
Text: Macrophages were isolated as plastic-adherent spleen cells from tumor-free rats vaccinated with IL-18 and IL-12 transfected tumor cells. […] This effect is interpreted as due to a decrease of the suppressive effect of IL-12 and IL-18 activated macrophages on T cell responses.
The observation of selective macrophage toxicity is further supported by the observation that CA4P treatment of unseparated spleen cells recapitulates this anti-tumor immune response. FIG. 3 illustrates the in vitro immune proliferative response of unseparated spleen cells isolated from tumor-free rats previously vaccinated with IL-18 and IL-12 transfected tumor cells. Spleen cells were stimulated with untransfected (H1D2-WT) tumor cells (FIG. 3A) or the superantigen SEA polyclonal activator (FIG. 3B) after preincubation with or without CA4P (0.15 μg/ml).
As described in Table 1, spleen cells were isolated from tumor-free BN×WF hybrid rats immunized twice (1 week between vaccinations) with BN7005-H1D2 tumor cells producing IL-18 and IL-12, respectively. Macrophages were isolated from the sample by allowing isolated spleen cells to adhere to the plastic surface of 96-well microtiter plates, at which point the non-adherent cells were removed.
The purified adherent cells (6×10^5/microtiter well) were treated in vitro for 3 hours with 0.15 ug/ml CA4P before washing. […] These variables were used to choose an in vitro concentration that is equal to the average concentration in vivo after a 3 hour period. For example, after treatment with 2 mg/kg in vivo, the concentration would be a maximum of 0.18 ug/ml 1.5 hours later, and less than 1 ng/ml after 3 hours.
The proliferative response of 3×10^5 admixed non-adherent cells (e.g. T-cells) stimulated for 4 days with SEA (0.05 ng/ml) was estimated as in Example 1. […] This effect is interpreted as due to a decrease of the suppressive effect of the IL-12 and IL-18 activated macrophages on T cell responses. […]

COc1ccc(/C=C\c2cc(OC)c(OC)c(OC)c2)cc1OP(=O)([O-])[O-].[Na+].[Na+] [CA4P, CA4 phosphate disodium salt]
Proliferative T cell response (CPM thymidine incorporation) (Rat#1, adherent spleen cells (MO) preincubated 3 h with CA4-P 0.15 μg/ml, then L1 nonadherent cells + SEA 0.05 ng/ml, 4 days): 124K
Animals with stimulating effect on proliferative response (parallel studies (FIG. 3), spleen cells stimulated with wild type tumor cells and SEA 0.1 ng/ml, CA4P 0.15 μg/ml): 3 of 4
Enhancement of in vitro proliferative response of admixed non-adherent cells (preincubation of adherent cells (spleen macrophages) with CA4P): 2 fold
